ChEMBL document CHEMBL5729509, “Compounds and compositions for the treatment of neurodegenerative and inflammatory diseases” (2023)

Assays:
[1] = target: T1, Kallikrein-6 (Homo sapiens, UniProt Q92876); experiment: Activities on KLK6 (Boc-QAR-AMC): In a typical test, 100 μl of reaction medium contains the buffer, 1 μl of recombinant enzyme, 1 μl of substrate (Boc-QAR-AMC) and 1 μl of the compound tested at 10 μM (in the control, 1 μl of DMSO). In each well, the inhibitor is deposited in the presence of the enzyme-buffer mixture for preincubation for 15 minutes at 37° C. The enzymatic reaction is then …
Description: Activities on KLK6 (Boc-QAR-AMC): In a typical test, 100 μl of reaction medium contains the buffer, 1 μl of recombinant enzyme, 1 μl of substrate (Boc-QAR-AMC) and 1 μl of the compound tested at 10 μM (in the control, 1 μl of DMSO). In each well, the inhibitor is deposited in the presence of the enzyme-buffer mixture for preincubation for 15 minutes at 37° C. The enzymatic reaction is then triggered by adding the buffer-substrate mixture (100 μM). The release of the 7-amino-4-methylcoumarin fluorescent group (AMC, λex=360 nm, λem=460 nm) following the hydrolysis of the substrate catalyzed by the enzyme is monitored for 30 minutes at 37° C. using a FLUOstar spectrofluorimeter.

[2] = target: T1, Kallikrein-6; experiment: Activities on KLK6 (MBP3): In a typical test, 100 μl of reaction medium contains the buffer, 1 μl of recombinant enzyme, 1 μl of substrate (MBP3) and 1 μl of the compound tested at 10 μM (in the control, 1 μl of DMSO). In each well, the inhibitor is deposited in the presence of the enzyme-buffer mixture for preincubation for 15 minutes at 37° C. The enzymatic reaction is then triggered by adding …
Description: Activities on KLK6 (MBP3): In a typical test, 100 μl of reaction medium contains the buffer, 1 μl of recombinant enzyme, 1 μl of substrate (MBP3) and 1 μl of the compound tested at 10 μM (in the control, 1 μl of DMSO). In each well, the inhibitor is deposited in the presence of the enzyme-buffer mixture for preincubation for 15 minutes at 37° C. The enzymatic reaction is then triggered by adding the buffer-substrate mixture (100 μM). The release of the 7-amino-4-methylcoumarin fluorescent group (AMC, λex=360 nm, λem=460 nm) following the hydrolysis of the substrate catalyzed by the enzyme is monitored for 30 minutes at 37° C. using a FLUOstar spectrofluorimeter.

[3] = target: T2, Plasminogen (Homo sapiens, UniProt P00747); experiment: Activities on Plasmin (Boc-QAR-AMC): In a typical test, 100 μl of reaction medium contains the buffer, 1 μl of recombinant enzyme, 1 μl of substrate (Boc-QAR-AMC) and 1 μl of the compound tested at 10 μM (in the control, 1 μl of DMSO). In each well, the inhibitor is deposited in the presence of the enzyme-buffer mixture for preincubation for 15 minutes at 37° C. The enzymatic reaction is then …
Description: Activities on Plasmin (Boc-QAR-AMC): In a typical test, 100 μl of reaction medium contains the buffer, 1 μl of recombinant enzyme, 1 μl of substrate (Boc-QAR-AMC) and 1 μl of the compound tested at 10 μM (in the control, 1 μl of DMSO). In each well, the inhibitor is deposited in the presence of the enzyme-buffer mixture for preincubation for 15 minutes at 37° C. The enzymatic reaction is then triggered by adding the buffer-substrate mixture (100 μM). The release of the 7-amino-4-methylcoumarin fluorescent group (AMC, λex=360 nm, λem=460 nm) following the hydrolysis of the substrate catalyzed by the enzyme is monitored for 30 minutes at 37° C. using a FLUOstar spectrofluorimeter.

[4] = target: Kallikrein-1 (Homo sapiens, UniProt P06870); experiment: Inhibitory Effect on the Enzymatic Activity of KLK: Table 4: The molecules were tested in order to evaluate their possible inhibitory effect on the enzymatic activity of KLK1. The % inhibitions were determined from the residual activity of the hydrolysis of the Boc-PFR-AMC fluorogenic substrate (100 μM) by KLK1 (1.6 nM) after 15 minutes of incubation at 37° C. with each molecule at 10 μM.
[5] = target: T1, Kallikrein-6; experiment: Activities on KLK6 (PAR2): In a typical test, 100 μl of reaction medium contains the buffer, 1 μl of recombinant enzyme, 1 μl of substrate (PAR2) and 1 μl of the compound tested at 10 μM (in the control, 1 μl of DMSO). In each well, the inhibitor is deposited in the presence of the enzyme-buffer mixture for preincubation for 15 minutes at 37° C. The enzymatic reaction is then triggered by adding …
Description: Activities on KLK6 (PAR2): In a typical test, 100 μl of reaction medium contains the buffer, 1 μl of recombinant enzyme, 1 μl of substrate (PAR2) and 1 μl of the compound tested at 10 μM (in the control, 1 μl of DMSO). In each well, the inhibitor is deposited in the presence of the enzyme-buffer mixture for preincubation for 15 minutes at 37° C. The enzymatic reaction is then triggered by adding the buffer-substrate mixture (100 μM). The release of the 7-amino-4-methylcoumarin fluorescent group (AMC, λex=360 nm, λem=460 nm) following the hydrolysis of the substrate catalyzed by the enzyme is monitored for 30 minutes at 37° C. using a FLUOstar spectrofluorimeter.

[6] = target: T2, Plasminogen; experiment: Activities on Plasmin (PAR4): In a typical test, 100 μl of reaction medium contains the buffer, 1 μl of recombinant enzyme, 1 μl of substrate (PAR4) and 1 μl of the compound tested at 10 μM (in the control, 1 μl of DMSO). In each well, the inhibitor is deposited in the presence of the enzyme-buffer mixture for preincubation for 15 minutes at 37° C. The enzymatic reaction is then triggered by …
Description: Activities on Plasmin (PAR4): In a typical test, 100 μl of reaction medium contains the buffer, 1 μl of recombinant enzyme, 1 μl of substrate (PAR4) and 1 μl of the compound tested at 10 μM (in the control, 1 μl of DMSO). In each well, the inhibitor is deposited in the presence of the enzyme-buffer mixture for preincubation for 15 minutes at 37° C. The enzymatic reaction is then triggered by adding the buffer-substrate mixture (100 μM). The release of the 7-amino-4-methylcoumarin fluorescent group (AMC, λex=360 nm, λem=460 nm) following the hydrolysis of the substrate catalyzed by the enzyme is monitored for 30 minutes at 37° C. using a FLUOstar spectrofluorimeter.

T2 sequence (P00747 97-580 limits assumed): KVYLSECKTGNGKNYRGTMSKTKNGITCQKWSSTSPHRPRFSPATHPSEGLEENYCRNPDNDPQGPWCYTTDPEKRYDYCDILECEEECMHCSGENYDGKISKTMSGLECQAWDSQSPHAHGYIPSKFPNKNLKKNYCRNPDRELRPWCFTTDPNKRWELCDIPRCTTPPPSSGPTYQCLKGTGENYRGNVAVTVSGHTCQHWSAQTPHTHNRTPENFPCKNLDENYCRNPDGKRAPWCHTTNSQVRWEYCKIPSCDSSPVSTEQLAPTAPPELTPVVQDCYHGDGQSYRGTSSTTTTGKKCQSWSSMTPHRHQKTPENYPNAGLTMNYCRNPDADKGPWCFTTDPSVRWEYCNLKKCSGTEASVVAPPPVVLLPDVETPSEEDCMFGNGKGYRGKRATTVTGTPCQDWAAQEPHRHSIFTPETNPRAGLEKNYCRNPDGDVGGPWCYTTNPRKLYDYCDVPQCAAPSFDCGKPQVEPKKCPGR
T2 sequence (P00747 581-810 limits assumed): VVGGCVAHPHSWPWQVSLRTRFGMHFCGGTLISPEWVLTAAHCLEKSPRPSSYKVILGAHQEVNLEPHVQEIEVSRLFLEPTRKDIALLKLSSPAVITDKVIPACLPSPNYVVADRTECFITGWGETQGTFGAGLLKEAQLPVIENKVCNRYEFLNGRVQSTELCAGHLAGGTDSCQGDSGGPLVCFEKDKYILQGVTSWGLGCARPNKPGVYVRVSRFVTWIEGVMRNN
Chain of Kallikrein-1 (P06870 whole entry): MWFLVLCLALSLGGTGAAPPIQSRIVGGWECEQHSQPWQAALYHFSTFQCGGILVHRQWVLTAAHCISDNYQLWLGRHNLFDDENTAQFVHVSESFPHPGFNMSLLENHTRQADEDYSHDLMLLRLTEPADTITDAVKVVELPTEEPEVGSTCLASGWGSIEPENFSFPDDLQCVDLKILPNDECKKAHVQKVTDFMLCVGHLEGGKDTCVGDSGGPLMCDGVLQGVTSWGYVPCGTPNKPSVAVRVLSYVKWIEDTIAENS

Compound | IC50 [1] | Ki [1] | IC50 [2] | IC50 [3] | Ki [3] | IC50 [4] | IC50 [5] | IC50 [6]
Cc1ccc(C(=O)Nc2ccc(CN)cc2)c(O)c1 | 5.42 µM | 1.92 µM | 8.34 µM | 12.5 µM | 4.66 µM | 39.3 µM | 5.06 µM | 
COc1ccc2c(O)c(C(=O)Nc3ccc(CN)cc3)ccc2c1 |  |  |  | 2.72 µM | 2.16 µM | 30.7 µM |  | 
CC(C)c1ccc(C(=O)Nc2ccc(CN)cc2)c(O)c1 | 1.56 µM | 1.75 µM |  |  | 0.67 µM |  |  | 

More lines, now with the values ahead:

IC50 [1] | Ki [1] | IC50 [2] | IC50 [3] | Ki [3] | IC50 [4] | IC50 [5] | IC50 [6] | Compound
 |  |  | 3.75 µM |  | 5.9 µM |  | 3.25 µM | NCc1ccc(NC(=O)c2cc3ccccc3cc2O)cc1
1.5 µM | 2.26 µM | 7.89 µM |  |  |  | 2.63 µM | 4.92 µM | NCc1ccc(NC(=O)c2ccc3ccccc3c2O)cc1
